The text below walks through data of patent US20080228069A1, “Novel Differential Imaging Method” (MEDIPHYSICS, INC., priority 2003, published 2008).

Data set [1] concerns SK—N—SH human neuroblastoma cells. The note with it: over activity range; cited from earlier work.
For data set [2] the following is noted: cited from earlier work.
For data set [3], the system named is myocardial uptake of ^123I mIBG. Briefly: ^123I mIBG imaging with and without amitryptaline. The data set is classed as in vivo, human. As to the method: 4 patients with movement disorders and aged between 66 and 75 were selected for this study. Neurological examination raised the differential diagnosis between essential tremor and Parkinson's disease. Prior to the study, none of the patients was taking any medication known to interfere with mIBG uptake. In all patients two ^123I mIBG scans were performed, one of which was performed after administration of a single oral dose of 25 mg amitryptaline one hour prior to ^123I mIBG administration. The imaging protocol was carried out for both scans as described in the following paragraphs.
The patients were treated with 200-500 mg of potassium perchlorate 30 minutes before injection of ^123I mIBG. […]
Anterior planar images of the thorax were obtained at 15 minutes and at 4 hours after ^123I mIBG injection with the subject in a supine position. The gamma camera (GE Millenium) was equipped with a low-energy, parallel-hole, general purpose collimator, and a 20% energy window on 159 KeV if ^123I is used.
SPECT was performed with collection of 32 projections of 30-60 seconds each, acquired over 180° orbit, with 3°-6° angle interval in a 64×64 matrix starting in the 45° right anterior oblique projection and finishing in the 45° left posterior oblique projection.
Studies were reconstructed using a Butterworth filtered backprojection technique. Three tomographic images were obtained from the SPECT study, i.e. vertical long axis slices, short axis slices, and horizontal long axis slices. Bull's eye polar map was generated from the apical to the basal short axis slices to show relative tracer distribution in the myocardium. Reconstruction was performed without attenuation and scatter correction.
The parameters used for quantification of myocardial ^123I-mIBG activity were heart to mediastinum ratio (HMR) and myocardial washout rate (WR). […] The WR is calculated by dividing the product of […] by myocardial counts at 15 minutes and multiplying by 100. […]

For the compound `NC(N)=NCc1ccc(F)c(I)c1` [^18F-FIBG], the “percent binding to SK—N—SH human neuroblastoma cells” value in data set [1] was “remained constant over a 3-log activity range”. Further, the “uptake in mouse heart and adrenals” value in data set [2] was “Specific and high uptake”.

Take `CN(C)CCC=C1c2ccccc2CCc2ccccc21` [amitryptaline]: the “myocardial uptake of ^123I mIBG when amitryptaline was administered before ^123I mIBG” value in data set [3] (FIG. 3, two of the four subjects, single oral dose of 25 mg amitryptaline one hour prior to ^123I mIBG) is “marked decrease”. Moreover, in data set [3] (FIG. 4, the other two subjects, single oral dose of 25 mg amitryptaline one hour prior to ^123I mIBG), the “difference in the myocardial uptake of ^123I mIBG following administration of amitryptaline” value is on record as “no notable difference”. In addition, in data set [3] (half of the patients imaged (4 patients), adrenergic interfering agent amitryptaline), the “uptake of ^123I mIBG in the stress image” value is “Reduced uptake”.
